Results from the NIST ThermoML archive (doi:10.1016/j.fluid.2005.07.017).

Assay: xn = mol fraction of the nth substance listed
Settings: Liquid, Vibrating tube method

c1ccsc1 [thiophene] + O=C=O
Settings	mass density [kg/m3]
332.85 K, 13009 kPa, x2 = 0.199	1012.87
332.85 K, 13971 kPa, x2 = 0	1030.09
332.85 K, 14005 kPa, x2 = 0.199	1014.1
332.85 K, 15006 kPa, x2 = 0	1031.04
332.85 K, 15042 kPa, x2 = 0.199	1015.31
332.85 K, 15990 kPa, x2 = 0	1032.01
332.85 K, 16037 kPa, x2 = 0.199	1016.53
332.85 K, 17034 kPa, x2 = 0.199	1017.71
332.85 K, 17050 kPa, x2 = 0	1033.03
332.85 K, 17976 kPa, x2 = 0	1033.88
332.85 K, 18013 kPa, x2 = 0.199	1018.85
332.85 K, 19004 kPa, x2 = 0.199	1019.98
332.85 K, 19018 kPa, x2 = 0	1034.92
332.85 K, 20016 kPa, x2 = 0.199	1021.13
332.93 K, 10438 kPa, x2 = 0.9217	603.48
332.93 K, 11001 kPa, x2 = 0.9217	635.42
332.93 K, 12001 kPa, x2 = 0.9217	673.08
332.93 K, 13005 kPa, x2 = 0.9217	700.08
332.93 K, 13949 kPa, x2 = 0.9217	720.24
332.93 K, 15012 kPa, x2 = 0.9217	738.73
332.93 K, 16019 kPa, x2 = 0.9217	754.17
332.93 K, 17014 kPa, x2 = 0.9217	767.1
332.93 K, 18009 kPa, x2 = 0.9217	778.74
332.93 K, 18964 kPa, x2 = 0.9217	789.26
332.93 K, 20027 kPa, x2 = 0.9217	798.89
332.93 K, 21018 kPa, x2 = 0.9217	807.65
332.93 K, 22031 kPa, x2 = 0.9217	815.99
332.93 K, 23019 kPa, x2 = 0.9217	823.51
332.93 K, 23954 kPa, x2 = 0.9217	830.07
332.93 K, 25005 kPa, x2 = 0.9217	836.64
332.96 K, 6987 kPa, x2 = 0.3818	977.03
332.96 K, 8041 kPa, x2 = 0.3818	979.02
332.96 K, 9012 kPa, x2 = 0.3818	980.85
332.96 K, 10018 kPa, x2 = 0.3818	982.65
332.96 K, 11007 kPa, x2 = 0.3818	984.44
332.96 K, 12018 kPa, x2 = 0.3818	986.2
332.96 K, 13030 kPa, x2 = 0.3818	987.96
332.96 K, 13998 kPa, x2 = 0.3818	989.61
332.96 K, 14969 kPa, x2 = 0.3818	991.25
332.96 K, 16045 kPa, x2 = 0.3818	993.04
332.96 K, 17024 kPa, x2 = 0.3818	994.61
332.96 K, 18020 kPa, x2 = 0.3818	996.22
332.96 K, 19050 kPa, x2 = 0.3818	997.85
333.04 K, 9091 kPa, x2 = 0.6996	929.67
333.04 K, 10017 kPa, x2 = 0.6996	932.84
333.04 K, 11036 kPa, x2 = 0.6996	936.19
333.04 K, 11989 kPa, x2 = 0.6996	939.22
333.04 K, 13024 kPa, x2 = 0.6996	942.4
333.04 K, 14004 kPa, x2 = 0.6996	945.28
333.04 K, 14904 kPa, x2 = 0.6996	947.84
333.04 K, 16043 kPa, x2 = 0.6996	951.03
333.04 K, 17013 kPa, x2 = 0.6996	953.62
333.04 K, 18048 kPa, x2 = 0.6996	956.36
333.04 K, 19011 kPa, x2 = 0.6996	958.88
333.15 K, 101 kPa, x2 = 0	1014.58
342.66 K, 5097 kPa, x2 = 0.199	988.63
342.66 K, 6031 kPa, x2 = 0.199	989.99
342.66 K, 7084 kPa, x2 = 0.199	991.48
342.66 K, 8010 kPa, x2 = 0.199	992.78
342.66 K, 9020 kPa, x2 = 0.199	994.19
342.66 K, 10077 kPa, x2 = 0.199	995.61
342.66 K, 11049 kPa, x2 = 0.199	996.93
342.66 K, 11932 kPa, x2 = 0.199	998.15
342.66 K, 13009 kPa, x2 = 0.199	999.54
342.66 K, 13997 kPa, x2 = 0.199	1000.84
342.66 K, 14996 kPa, x2 = 0.199	1002.14
342.66 K, 16043 kPa, x2 = 0.199	1003.48
342.66 K, 17018 kPa, x2 = 0.199	1004.66
342.66 K, 18018 kPa, x2 = 0.199	1005.93
342.66 K, 19016 kPa, x2 = 0.199	1007.17
342.66 K, 20032 kPa, x2 = 0.199	1008.42
342.69 K, 9071 kPa, x2 = 0.5661	923.94
342.69 K, 10000 kPa, x2 = 0.5661	926.85
342.69 K, 11013 kPa, x2 = 0.5661	929.94
342.69 K, 11994 kPa, x2 = 0.5661	932.85
342.69 K, 13024 kPa, x2 = 0.5661	935.81
342.69 K, 13996 kPa, x2 = 0.5661	938.48
342.69 K, 15008 kPa, x2 = 0.5661	941.2
342.69 K, 16016 kPa, x2 = 0.5661	943.82
342.69 K, 17021 kPa, x2 = 0.5661	946.37
342.69 K, 18030 kPa, x2 = 0.5661	948.87
342.69 K, 19004 kPa, x2 = 0.5661	951.23
342.77 K, 1039 kPa, x2 = 0	1004.75
342.77 K, 2072 kPa, x2 = 0	1005.93
342.77 K, 3033 kPa, x2 = 0	1007.02
342.77 K, 4023 kPa, x2 = 0	1008.17
342.77 K, 5027 kPa, x2 = 0	1009.26
342.77 K, 6033 kPa, x2 = 0	1010.36
342.77 K, 7008 kPa, x2 = 0	1011.44
342.77 K, 7998 kPa, x2 = 0	1012.5
342.77 K, 9005 kPa, x2 = 0	1013.59
342.77 K, 10000 kPa, x2 = 0	1014.65
342.77 K, 10963 kPa, x2 = 0	1015.65
342.77 K, 12009 kPa, x2 = 0	1016.72
342.77 K, 13023 kPa, x2 = 0	1017.82
342.77 K, 13928 kPa, x2 = 0	1018.74
342.77 K, 15009 kPa, x2 = 0	1019.83
342.77 K, 15998 kPa, x2 = 0	1020.79
342.77 K, 17025 kPa, x2 = 0	1021.8
342.77 K, 17995 kPa, x2 = 0	1022.8
342.77 K, 19013 kPa, x2 = 0	1023.79
342.77 K, 20001 kPa, x2 = 0	1024.73
342.91 K, 7074 kPa, x2 = 0.3818	959.84
342.91 K, 7993 kPa, x2 = 0.3818	961.78
342.91 K, 8982 kPa, x2 = 0.3818	963.81
342.91 K, 10027 kPa, x2 = 0.3818	965.93
